Results taken from ChEMBL document CHEMBL4190360, “Exploring Heteroaryl-pyrazole Carboxylic Acids as Human Carbonic Anhydrase XII Inhibitors” (ACS Med Chem Lett, 2017).

Tests used:
HEK293 [1] = experiment: (§1) Growth inhibition of HEK293 cells at 1 to 100 uM after 24 hrs by MTS assay relative to control; assay type: cell-based; conditions: human, hek293, 24 h, 100 µM
PC-3 = experiment: Growth inhibition of human PC3 cells at 1 to 100 uM after 24 hrs by MTS assay relative to control; assay type: functional
SH-SY5Y [2] = experiment: Growth inhibition of human SH-SY5Y cells at 1 to 100 uM after 24 hrs by MTS assay relative to control; assay type: functional
Carbonic anhydrase 9 = Carbonic anhydrase 9 (Homo sapiens, UniProt Q16790)
Description: Inhibition of recombinant human carbonic anhydrase 9 catalytic domain preincubated for 15 mins prior to testing measured for 10 to 100 secs by phenol red-based stopped-flow CO2 hydration assay

SH-SY5Y [3] = experiment: Antiproliferative activity against CoCl2-simulated human SH-SY5Y cells assessed as reduction in cell viability at 30 uM pretreated for 24 hrs followed by CoCl2 addition measured after overnight incubation by MTS assay; assay type: functional
HEK293 [4] = experiment: Growth inhibition of HEK293 cells after 24 hrs by MTS assay; assay type: cell-based; conditions: human, hek293, 24 h
[5] = as §1; assay type: cell-based; conditions: human, HEK293 cells; read-out: GI

| Compound | Ki (Carbonic anhydrase 9) [µM] | growth inhibition (GI) (HEK293 [1]) | growth inhibition (GI) (PC-3) [%] | growth inhibition (GI) (SH-SY5Y [2]) [%] | Activity (SH-SY5Y [3]) [%] | growth inhibition (GI) (HEK293 [4]) | inhibition at 24 h, 100 µM [5] [%] |
| --- | --- | --- | --- | --- | --- | --- | --- |
| CCn1cc(-c2cc(C(=O)O)n[nH]2)c2ccccc21 | – | Non-Toxic | 85 | 85 | – | – | – |
| COC(=O)c1cc(-c2cn(C(C)C)c3ccccc23)n[nH]1 | 7.36 | – | 85 | 85 | 40 | Dose-dependent effect | 70 |
| CCCCn1cc(-c2cc(C(=O)O)[nH]n2)c2ccccc21 | 4.51 | – | – | – | – | – | – |
| CC(C)n1cc(-c2cc(C(=O)O)[nH]n2)c2ccccc21 | 18.9 | Non-Toxic | 85 | 85 | – | – | – |
| CCCCn1cc(-c2cc(C(=O)OC)[nH]n2)c2ccccc21 | 7.9 | – | – | – | – | – | – |

Continued, in another order:

| Ki (Carbonic anhydrase 9) [µM] | Compound | growth inhibition (GI) (HEK293 [1]) | growth inhibition (GI) (PC-3) [%] | growth inhibition (GI) (SH-SY5Y [2]) [%] | Activity (SH-SY5Y [3]) [%] | growth inhibition (GI) (HEK293 [4]) | inhibition at 24 h, 100 µM [5] [%] |
| --- | --- | --- | --- | --- | --- | --- | --- |
| 0.47 | CCn1cc(-c2cc(C(=O)OC)[nH]n2)c2ccccc21 | Non-Toxic | 85 | 85 | – | – | – |
| 2.91 | CCn1cc(-c2cc(C(=O)O)n(C)n2)c2ccccc21 | – | – | – | – | – | – |
| 3.02 | CCn1cc(-c2cc(C(=O)OC)n(C)n2)c2ccccc21 | – | – | – | – | – | – |
